Data published in ChEMBL document CHEMBL5390254, “Discovery and Optimization of Novel hDHODH Inhibitors for the Treatment of Inflammatory Bowel Disease” (J Med Chem, 2023).
Calls of active or inactive are those of the source. The calls are words filed in the database; no cut-off is given here.

Assays:
[1] = Metabolic stability in rat liver microsomes assessed as intrinsic clearance at 3 uM incubated upto 90 mins in presence of NADPH by LC-MS/MS analysis; type: ADME, Microsome; details: read-out: CLH
[2] = Metabolic stability in mouse liver microsomes assessed as intrinsic clearance at 3 uM incubated upto 90 mins in presence of NADPH by LC-MS/MS analysis; type: ADME, Microsome; details: read-out: CLH
[3] = Metabolic stability in human liver microsomes assessed as intrinsic clearance at 3 uM incubated upto 90 mins in presence of NADPH by LC-MS/MS analysis; type: ADME, Microsome; details: read-out: CLH
[4] = Metabolic stability in human liver microsomes assessed as half life at 3 uM incubated upto 90 mins in presence of NADPH by LC-MS/MS analysis; type: ADME, Microsome
[5] = Metabolic stability in rat liver microsomes assessed as half life at 3 uM incubated upto 90 mins in presence of NADPH by LC-MS/MS analysis; type: ADME, Microsome
[6] = Metabolic stability in mouse liver microsomes assessed as half life at 3 uM incubated upto 90 mins in presence of NADPH by LC-MS/MS analysis; type: ADME, Microsome
Mus musculus [7] = experiment: Anti-inflammatory activity against DSS-induced acute ulcerative colitis in C57BL/6 mouse model assessed as decrease in colon tissue damage score at 100 mg/kg, po QD for 6 days relative to DSS group; type: functional; set-up: scale not given: the % may be the effect or the level left; details: time 6 day
[8] = Apparent volume of distribution during terminal phase in Sprague-Dawley rat at 15 mg/kg, po and measured upto 48 hrs by LC-MS/MS analysis; type: ADME, organism-based; details: in vivo, read-out: Vz/F
Mus musculus [9] = experiment: Anti-inflammatory activity against DSS-induced acute ulcerative colitis in C57BL/6 mouse model assessed as decrease in IL-17 production in colon at 100 mg/kg, po QD for 6 days by ELISA; type: functional, organism-based; details: time 6.0 day
[10] = Apparent oral clearance in Han Wistar rat at 5 mg/kg,po and measured upto 24 hrs by LC-MS analysis; type: ADME, organism-based; details: in vivo
Mus musculus [11] = experiment: Anti-inflammatory activity against DSS-induced acute ulcerative colitis in C57BL/6 mouse model assessed as decrease in IL-1beta production in colon at 100 mg/kg, po QD for 6 days by ELISA; type: functional, organism-based; details: time 6.0 day
Mus musculus [12] = experiment: Anti-inflammatory activity against DSS-induced acute ulcerative colitis in C57BL/6 mouse model assessed as decrease in IL-6 production in colon at 100 mg/kg, po QD for 6 days by ELISA; type: functional, organism-based; details: time 6.0 day
[13] = target: Dihydroorotate dehydrogenase (quinone), mitochondrial (Homo sapiens) (UniProt Q02127); details: dose 10.0 µM
Description: Binding affinity to human DHODH assessed as change in melting temperature at 10 uM by thermal shift based DSF assay

[14] = Oral bioavailability in Han Wistar rat at 5 mg/kg and measured upto 24 hrs by LC-MS analysis; type: ADME, organism-based; details: in vivo
Mus musculus [15] = experiment: Anti-inflammatory activity against DSS-induced acute ulcerative colitis in C57BL/6 mouse model assessed as decrease in IL-17 mRNA expression level in colon at 100 mg/kg, po QD for 6 days by RT-PCR analysis; type: functional, organism-based; details: time 6.0 day
Mus musculus [16] = experiment: Anti-inflammatory activity against DSS-induced acute ulcerative colitis in C57BL/6 mouse model assessed as decrease in IL-1beta mRNA expression level in colon at 100 mg/kg, po QD for 6 days by RT-PCR analysis; type: functional, organism-based; details: time 6.0 day
Mus musculus [17] = experiment: Anti-inflammatory activity against DSS-induced acute ulcerative colitis in C57BL/6 mouse model assessed as decrease in colon length shortening at 100 mg/kg, po QD for 6 days (Rvb= 5.5cm); type: functional; details: time 6 day
[18] = Terminal half life in Han Wistar rat at 5 mg/kg,po and measured upto 24 hrs by LC-MS analysis; type: ADME, organism-based; details: in vivo, read-out: beta t1/2 (converted)
Mus musculus [19] = experiment: Anti-inflammatory activity against DSS-induced acute ulcerative colitis in C57BL/6 mouse model assessed as decrease in IL-6 mRNA expression level in colon at 100 mg/kg, po QD for 6 days by RT-PCR analysis; type: functional, organism-based; details: time 6.0 day
[20] = 1-octanol/water partition coefficient, logP of the compound at 2 mg by UPLC analysis; type: physicochemical

Sequence of Dihydroorotate dehydrogenase (quinone), mitochondrial (Homo sapiens) (Q02127 whole entry): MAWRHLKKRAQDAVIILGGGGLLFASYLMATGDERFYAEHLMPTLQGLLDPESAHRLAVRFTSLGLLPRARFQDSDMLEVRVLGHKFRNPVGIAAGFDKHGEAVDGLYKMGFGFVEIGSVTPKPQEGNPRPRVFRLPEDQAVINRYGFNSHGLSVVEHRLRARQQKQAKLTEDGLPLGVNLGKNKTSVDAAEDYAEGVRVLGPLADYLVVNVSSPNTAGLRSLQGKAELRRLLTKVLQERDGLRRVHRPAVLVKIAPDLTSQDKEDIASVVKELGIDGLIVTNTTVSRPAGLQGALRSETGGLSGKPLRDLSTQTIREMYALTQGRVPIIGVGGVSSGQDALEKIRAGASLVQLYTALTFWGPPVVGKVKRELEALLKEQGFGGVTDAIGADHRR

Nc1nc(-c2nn(Cc3ccccc3F)c3ncccc23)ncc1C1CC1
CLint scaled at 3 µM [1]: 101 mL/min/kg | CLint scaled at 3 µM [2]: 177 mL/min/kg | CLint scaled at 3 µM [3]: 45.7 mL/min/kg | half-life at 3 µM [4]: 38.1 min | half-life at 3 µM [5]: 24.5 min | half-life at 3 µM [6]: 30.8 min

COc1cccc(-c2ccc(NC(=O)C3=C(C(=O)O)CCC3)c(F)c2)c1 [VIDOFLUDIMUS]
Activity (Mus musculus [7]): 22.73% | Vd/F [8]: 0.02 L/kg | Activity (Mus musculus [9]): Active | CL/F [10]: 220 mL/min/kg | Activity (Mus musculus [11]): Active | Activity (Mus musculus [12]): Active | ΔTm [13]: 9.8 °C | bioavailability [14]: 73.8% | Activity (Mus musculus [15]): Active | Activity (Mus musculus [16]): Active | Activity (Mus musculus [17]): 6.4 cm | half-life [18]: 546 min | Activity (Mus musculus [19]): Active

Fc1cccc(F)c1Cn1cc(-c2ncc(C3CC3)cn2)c2cccnc21
logP [20]: 5.5
